# In ChEMBL document CHEMBL4725268, “Anticonvulsant and analgesic in neuropathic pain activity in a group of new aminoalkanol derivatives” (Bioorg Med Chem Lett, 2020):
# Calls of active or inactive are those of the source.
# How the values were obtained:
# Mus musculus [1] = experiment: Anticonvulsant activity in ip dosed albino mouse assessed as protection against 50 mA current-induced seizure by maximal electroshock seizure test; format: functional
# Mus musculus [2] = organism: Mus musculus; experiment: animal or person; settings: Swiss, ip
# Description: Anticonvulsant activity in ip dosed Swiss mouse assessed as protection against current-induced seizure by maximal electroshock seizure test
# Mus musculus [3] = experiment: Anticonvulsant activity in ip dosed mouse assessed as protection against current-induced seizure by maximal electroshock seizure test; format: functional
# [4] = Toxicity in mouse assessed as lethality at 50 mg/kg, ip; format: organism-based; settings: in vivo
# [5] = Toxicity in mouse assessed as lethality at 30 mg/kg, ip; format: organism-based; settings: in vivo
# [6] = Toxicity in mouse assessed as lethality at 20 mg/kg, ip; format: organism-based; settings: in vivo
# [7] = Toxicity in ip dosed mouse assessed as motor impairment by rotarod test; format: organism-based; settings: in vivo
# [8] = Protection index, ratio of TD50 for toxicity in ip dosed mouse to ED50 for anticonvulsant activity in ip dosed mouse; format: organism-based; settings: in vivo, read-out: PI
# [9] = target: T1, 5-hydroxytryptamine receptor 1A (Homo sapiens, UniProt P08908); experiment: Binding affinity to 5-HT1A (unknown origin)
# T1 sequence (P08908 whole entry): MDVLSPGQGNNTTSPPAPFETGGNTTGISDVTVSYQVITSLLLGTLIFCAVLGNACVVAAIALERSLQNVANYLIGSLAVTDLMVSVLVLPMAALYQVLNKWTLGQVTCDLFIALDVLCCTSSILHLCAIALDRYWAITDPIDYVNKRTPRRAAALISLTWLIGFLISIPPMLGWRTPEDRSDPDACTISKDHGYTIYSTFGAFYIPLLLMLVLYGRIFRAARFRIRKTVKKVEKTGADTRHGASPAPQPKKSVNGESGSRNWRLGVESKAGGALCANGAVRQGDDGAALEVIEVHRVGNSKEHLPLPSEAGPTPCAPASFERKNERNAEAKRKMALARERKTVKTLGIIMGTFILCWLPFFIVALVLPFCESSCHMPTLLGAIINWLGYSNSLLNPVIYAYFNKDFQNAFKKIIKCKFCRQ
# Enterococcus faecalis = experiment: Antimicrobial activity against Enterococcus faecalis ATCC 29212 assessed as reduction in bacterial growth at 0.195 to 100 ug/ml by serial dilution method; format: organism-based; settings: in vivo, dose 0.195-100 µg/ml
# Escherichia coli [10] = experiment: Antimicrobial activity against Escherichia coli ATCC 25922 assessed as reduction in bacterial growth at 0.195 to 100 ug/ml by serial dilution method; format: organism-based; settings: in vivo, dose 0.195-100 µg/ml
# Escherichia coli [11] = experiment: Antimicrobial activity against Escherichia coli ATCC 35218 assessed as reduction in bacterial growth at 0.195 to 100 ug/ml by serial dilution method; format: organism-based; settings: in vivo, dose 0.195-100 µg/ml
# Staphylococcus aureus [12] = experiment: Antimicrobial activity against Staphylococcus aureus ATCC 25923 assessed as reduction in bacterial growth at 0.195 to 100 ug/ml by serial dilution method; format: organism-based; settings: in vivo, dose 0.195-100 µg/ml
# Staphylococcus aureus [13] = experiment: Antimicrobial activity against clinical strain Staphylococcus aureus assessed as reduction in bacterial growth at 0.195 to 100 ug/ml by serial dilution method; format: organism-based; settings: in vivo, dose 0.195-100 µg/ml
# Salmonella enterica = experiment: Antimicrobial activity against Salmonella enterica ATCC 51957 assessed as reduction in bacterial growth at 0.195 to 100 ug/ml by serial dilution method; format: organism-based; settings: in vivo, dose 0.195-100 µg/ml
# Bacteroides fragilis = experiment: Antimicrobial activity against Bacteroides fragilis ATCC 25285 assessed as reduction in bacterial growth at 0.195 to 100 ug/ml by disk diffusion method; format: organism-based; settings: in vivo, dose 0.195-100 µg/ml
# Hoylesella loescheii = experiment: Antimicrobial activity against Prevotella loescheii ATCC 15930 assessed as reduction in bacterial growth at 0.195 to 100 ug/ml by disk diffusion method; format: organism-based, DSM 19665 = JCM 12249 = ATCC 15930; settings: in vivo, dose 0.195-100 µg/ml
# [14] = Antimicrobial activity against clinical strain Bifidobacterium assessed as reduction in bacterial growth at 0.195 to 100 ug/ml by disk diffusion method; settings: dose 0.195-100 µg/ml
# Clostridioides difficile = experiment: Antimicrobial activity against clinical strain Clostridium difficile assessed as reduction in bacterial growth at 0.195 to 100 ug/ml by disk diffusion method; format: organism-based; settings: in vivo, dose 0.195-100 µg/ml
# [15] = Antioxidant activity assessed as DPPH radical scavenging activity at 125 to 1000 uM by microplate method; format: functional; settings: dose microM 125-1000
# [16] = Toxicity in mouse assessed as lethality at 10 mg/kg, ip; format: organism-based; settings: in vivo
# Mus musculus [17] = experiment: Antiallodynic activity in mouse model of OXA-induced peripheral neuropathy assessed as mean latency time to nocifensive response at 18 mg/kg, ip administered after 3 hrs of OXA stimulation and measured after 1 hr by cold plate method (reference value: 59.76 +/- 0.16 sec); format: functional
# Mus musculus [18] = experiment: Antiallodynic activity in mouse model of OXA-induced peripheral neuropathy assessed as mean paw withdrawal threshold at 18 mg/kg, ip administered after 3 hrs of OXA stimulation and measured after 1 hr by Von-frey method (reference value: 3.144 +/- 0.169 g); format: functional
# Mus musculus [19] = experiment: Antiallodynic activity in mouse model of OXA-induced peripheral neuropathy assessed as mean latency time to nocifensive response at 18 mg/kg, ip administered after 7 days of OXA stimulation and measured after 1 hr by cold plate method (reference value: 57.64 +/- 1.267 sec); format: functional
# Mus musculus [20] = experiment: Antiallodynic activity in mouse model of OXA-induced peripheral neuropathy assessed as mean paw withdrawal threshold at 18 mg/kg, ip administered after 7 days of OXA stimulation and measured after 1 hr by Von-frey method (reference value: 3.192 +/- 0.181 g); format: functional
# [21] = target: T2, 5-hydroxytryptamine receptor 1A (Homo sapiens) (UniProt P08908); experiment: Binding affinity to 5-HT1A (unknown origin) at 10^-5 M; settings: dose 1.0 10^-5M
# T2 sequence (whole entry): T1 sequence (P08908 whole entry)
# [22] = Genotoxicity in Salmonella typhimurium TA100 assessed as number of revertant at 10 ug by AMES test (reference value: 64.3 to 130.7); format: toxicity, Salmonella enterica subsp. enterica serovar Typhimurium; settings: in vivo; dose 10 µg
# [23] = Genotoxicity in Salmonella typhimurium TA100 assessed as number of revertant at 75 ug by AMES test (reference value: 64.3 to 130.7); format: toxicity, Salmonella enterica subsp. enterica serovar Typhimurium; settings: in vivo; dose 75 µg
# [24] = Genotoxicity in Salmonella typhimurium TA100 assessed as number of revertant at 200 ug by AMES test (reference value: 64.3 to 130.7); format: toxicity, Salmonella enterica subsp. enterica serovar Typhimurium; settings: in vivo; dose 200 µg
# [25] = Genotoxicity in Salmonella typhimurium TA100 assessed as number of revertant at 500 ug by AMES test (reference value: 64.3 to 130.7); format: toxicity, Salmonella enterica subsp. enterica serovar Typhimurium; settings: in vivo; dose 500 µg
# [26] = Genotoxicity in Salmonella typhimurium TA100 assessed as number of revertant at 1000 ug by AMES test (reference value: 64.3 to 130.7); format: toxicity, Salmonella enterica subsp. enterica serovar Typhimurium; settings: in vivo; dose 1000 µg
# [27] = Genotoxicity in Salmonella typhimurium TA100 assessed as mutagenic index at 10 ug by AMES test; format: toxicity, Salmonella enterica subsp. enterica serovar Typhimurium; settings: in vivo; dose 10 µg
# [28] = Genotoxicity in Salmonella typhimurium TA100 assessed as mutagenic index at 75 ug by AMES test; format: toxicity, Salmonella enterica subsp. enterica serovar Typhimurium; settings: in vivo; dose 75 µg
# [29] = Genotoxicity in Salmonella typhimurium TA100 assessed as mutagenic index at 200 ug by AMES test; format: toxicity, Salmonella enterica subsp. enterica serovar Typhimurium; settings: in vivo; dose 200 µg
# [30] = Genotoxicity in Salmonella typhimurium TA100 assessed as mutagenic index at 500 ug by AMES test; format: toxicity, Salmonella enterica subsp. enterica serovar Typhimurium; settings: in vivo; dose 500 µg
# [31] = Genotoxicity in Salmonella typhimurium TA100 assessed as mutagenic index at 1000 ug by AMES test; format: toxicity, Salmonella enterica subsp. enterica serovar Typhimurium; settings: in vivo; dose 1000 µg
# [32] = Genotoxicity in Salmonella typhimurium TA98 assessed as number of revertant at 10 ug by AMES test (reference value: 8 to 8.3); format: toxicity, Salmonella enterica subsp. enterica serovar Typhimurium; settings: in vivo; dose 10 µg
# [33] = Genotoxicity in Salmonella typhimurium TA98 assessed as number of revertant at 75 ug by AMES test (reference value: 8 to 8.3); format: toxicity, Salmonella enterica subsp. enterica serovar Typhimurium; settings: in vivo; dose 75 µg
# [34] = Genotoxicity in Salmonella typhimurium TA98 assessed as number of revertant at 200 ug by AMES test (reference value: 8 to 8.3); format: toxicity, Salmonella enterica subsp. enterica serovar Typhimurium; settings: in vivo; dose 200 µg
# [35] = Genotoxicity in Salmonella typhimurium TA98 assessed as number of revertant at 500 ug by AMES test (reference value: 8 to 8.3); format: toxicity, Salmonella enterica subsp. enterica serovar Typhimurium; settings: in vivo; dose 500 µg
# [36] = Genotoxicity in Salmonella typhimurium TA98 assessed as number of revertant at 750 ug by AMES test (reference value: 8 to 8.3); format: toxicity, Salmonella enterica subsp. enterica serovar Typhimurium; settings: in vivo; dose 750 µg
# [37] = Genotoxicity in Salmonella typhimurium TA98 assessed as mutagenic index at 10 ug by AMES test; format: toxicity, Salmonella enterica subsp. enterica serovar Typhimurium; settings: in vivo; dose 10 µg
# [38] = Genotoxicity in Salmonella typhimurium TA98 assessed as mutagenic index at 75 ug by AMES test; format: toxicity, Salmonella enterica subsp. enterica serovar Typhimurium; settings: in vivo; dose 75 µg
# [39] = Genotoxicity in Salmonella typhimurium TA98 assessed as mutagenic index at 200 ug by AMES test; format: toxicity, Salmonella enterica subsp. enterica serovar Typhimurium; settings: in vivo; dose 200 µg
# [40] = Genotoxicity in Salmonella typhimurium TA98 assessed as mutagenic index at 500 ug by AMES test; format: toxicity, Salmonella enterica subsp. enterica serovar Typhimurium; settings: in vivo; dose 500 µg
# [41] = Genotoxicity in Salmonella typhimurium TA98 assessed as mutagenic index at 750 ug by AMES test; format: toxicity, Salmonella enterica subsp. enterica serovar Typhimurium; settings: in vivo; dose 750 µg
compound,measurement,setting,value
Cc1cccc(C)c1OCC(C)N (racemic) [MEXILETINE],ED50,Mus musculus [1],1.2 mg/kg
same,ED50,Mus musculus [2],11.9 mg/kg
Cc1ccc(OCCOCCN[C@H](C)CO)c(C)c1,ED50,Mus musculus [3],27.4 mg/kg
same,Activity,[4],Non-Toxic
same,Activity,[5],Non-Toxic
same,Activity,[6],Non-Toxic
same,TD50,[7],93.2 mg/kg
same,selectivity ratio,[8],3.4
same,Ki,[9],4.8 µM
same,Activity,Enterococcus faecalis,Non-Toxic
same,Activity,Escherichia coli [10],Non-Toxic
same,Activity,Escherichia coli [11],Non-Toxic
same,Activity,Staphylococcus aureus [12],Non-Toxic
same,Activity,Staphylococcus aureus [13],Non-Toxic
same,Activity,Salmonella enterica,Non-Toxic
same,Activity,Bacteroides fragilis,Non-Toxic
same,Activity,Hoylesella loescheii,Non-Toxic
same,Activity,[14],Non-Toxic
same,Activity,Clostridioides difficile,Non-Toxic
Cc1cc(C)c(C)c(OCCCN2CCC(O)CC2)c1,Activity,[15],inactive
same,ED50,Mus musculus [3],17.7 mg/kg
same,Activity,[16],Non-Toxic
same,TD50,[7],63.4 mg/kg
same,selectivity ratio,[8],3.58
same,Time,Mus musculus [17],15.167 s
same,Activity,Mus musculus [18],1.921 g
same,Time,Mus musculus [19],8.833 s
same,Activity,Mus musculus [20],2.027 g
same,Activity,[21],inactive
same,Activity,[22],66
same,Activity,[23],52.3
same,Activity,[24],42
same,Activity,[25],944
same,Activity,[26],1190
same,Activity_index,[27],1
same,Activity_index,[28],0.8
same,Activity_index,[29],0.7
same,Activity_index,[30],14.7
same,Activity_index,[31],18.5
same,Activity,[32],12
same,Activity,[33],15.3
same,Activity,[34],11
same,Activity,[35],6.7
same,Activity,[36],364.3
same,Activity_index,[37],1.4
same,Activity_index,[38],1.8
same,Activity_index,[39],1.3
same,Activity_index,[40],0.8
same,Activity_index,[41],43.7
same,Activity,Enterococcus faecalis,Non-Toxic
same,Activity,Escherichia coli [10],Non-Toxic
same,Activity,Escherichia coli [11],Non-Toxic
same,Activity,Staphylococcus aureus [12],Non-Toxic
same,Activity,Staphylococcus aureus [13],Non-Toxic
same,Activity,Salmonella enterica,Non-Toxic
same,Activity,Bacteroides fragilis,Non-Toxic
same,Activity,Hoylesella loescheii,Non-Toxic
same,Activity,[14],Non-Toxic
same,Activity,Clostridioides difficile,Non-Toxic
